Assay results as given in US9133158B2, “Bicyclic dihydroisoquinoline-1-one derivatives” (Hoffmann-La Roche Inc., priority 2011, dated 2015).

Tests used:
human CYP11B1 = target: T1, human CYP11B1 (Homo sapiens, UniProt P15538); test: G-402 cellular enzyme assay, human CYP11B1 (cortisol release, HTRF); type: cell-based; conditions: G-402 cells, 1 μM Deoxycortisol
T1 construct: expressed in transfected cells
T1 sequence (P15538 25-503): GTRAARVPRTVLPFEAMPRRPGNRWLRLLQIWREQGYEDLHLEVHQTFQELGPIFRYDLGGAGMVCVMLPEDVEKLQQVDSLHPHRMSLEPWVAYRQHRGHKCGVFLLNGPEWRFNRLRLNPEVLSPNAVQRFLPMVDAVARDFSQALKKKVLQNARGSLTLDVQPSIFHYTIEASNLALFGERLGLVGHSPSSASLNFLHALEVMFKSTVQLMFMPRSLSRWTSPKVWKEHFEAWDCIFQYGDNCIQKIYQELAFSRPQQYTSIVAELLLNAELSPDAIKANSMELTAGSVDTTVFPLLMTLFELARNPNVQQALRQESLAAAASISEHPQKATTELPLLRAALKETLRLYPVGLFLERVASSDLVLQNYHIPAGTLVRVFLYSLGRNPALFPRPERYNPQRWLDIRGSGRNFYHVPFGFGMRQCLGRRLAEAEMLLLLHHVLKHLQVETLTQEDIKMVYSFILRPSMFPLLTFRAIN
Outline: (§1)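 Cellular format in stably transfected G-402 cells over 16 h. HTRF quantified aldosterone (CYP11B2, 1 μM deoxycorticosterone substrate) or cortisol (CYP11B1, 1 μM deoxycortisol substrate); EC50 obtained by fitting a 4-parameter sigmoid to dose–response data.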

human CYP11B2 = target: T2, human CYP11B2 (Homo sapiens, UniProt P19099); test: G-402 cellular enzyme assay, human CYP11B2 (aldosterone release, HTRF); type: cell-based; conditions: G-402 cells, 1 μM Deoxycorticosterone
T2 construct: expressed in transfected cells
T2 sequence (P19099 25-503): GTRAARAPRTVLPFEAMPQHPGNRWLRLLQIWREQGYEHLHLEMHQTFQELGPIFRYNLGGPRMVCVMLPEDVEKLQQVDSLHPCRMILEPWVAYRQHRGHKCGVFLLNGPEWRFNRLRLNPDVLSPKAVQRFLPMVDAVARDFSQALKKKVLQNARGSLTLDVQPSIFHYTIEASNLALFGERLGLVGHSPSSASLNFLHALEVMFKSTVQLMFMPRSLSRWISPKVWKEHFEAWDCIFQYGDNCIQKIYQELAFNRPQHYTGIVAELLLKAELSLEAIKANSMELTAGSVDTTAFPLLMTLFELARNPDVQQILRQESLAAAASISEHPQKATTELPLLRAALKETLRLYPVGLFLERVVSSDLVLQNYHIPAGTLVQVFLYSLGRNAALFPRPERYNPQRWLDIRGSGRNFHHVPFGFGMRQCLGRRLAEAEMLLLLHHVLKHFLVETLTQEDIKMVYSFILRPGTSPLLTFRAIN
Outline: as §1

EC50 (human CYP11B1) [nM]	EC50 (human CYP11B2) [nM]	Structure (SMILES)
865	54.3	CC(O)c1cncc(N2CCc3cc(Cl)ccc3C2=O)c1 (stereo not shown) [Example 13, 6-Chloro-2-[5-(1-hydroxy-ethyl)-pyridin-3-yl]-3,4-dihydro-2H-isoquinolin-1-one]
1100	55	C[C@@H](O)c1cncc(N2CCc3cc(Cl)ccc3C2=O)c1 [Example 14, 6-Chloro-2-[5-((R)-1-hydroxy-ethyl)-pyridin-3-yl]-3,4-dihydro-2H-isoquinolin-1-one]
507	58.6	O=C1c2ccc(Cl)cc2CCN1c1cncc(C(O)C(F)(F)F)c1 (stereo not shown) [Example 18, 6-Chloro-2-[5-(2,2,2-trifluoro-1-hydroxy-ethyl)-pyridin-3-yl]-3,4-dihydro-2H-isoquinolin-1-one]
198	60.3	COC(c1cncc(N2CCc3cc(Cl)ccc3C2=O)c1)C(F)(F)F (stereo not shown) [Example 19, 6-Chloro-2-[5-(2,2,2-trifluoro-1-methoxy-ethyl)-pyridin-3-yl]-3,4-dihydro-2H-isoquinolin-1-one]
21.4	5.6	COC(C)(C)c1cncc(N2CCc3cc(Cl)ccc3C2=O)c1 [Example 24, 6-Chloro-2-[5-(1-methoxy-1-methyl-ethyl)-pyridin-3-yl]-3,4-dihydro-2H-isoquinolin-1-one]
8150	321	O=C1CCCN1c1cncc(N2CCc3cc(Cl)ccc3C2=O)c1 [Example 26, 6-Chloro-2-[5-(2-oxo-pyrrolidin-1-yl)-pyridin-3-yl]-3,4-dihydro-2H-isoquinolin-1-one]
757	104	O=C1c2ccc(Cl)cc2CCN1c1cncc2c1CCCC2O (stereo not shown) [Example 28, 6-Chloro-8′-hydroxy-3,4,5′,6′,7′,8′-hexahydro-[2,4′]biisoquinolinyl-1-one]
2070	751	Cn1ccnc1C(O)c1cncc(N2CCc3cc(Cl)ccc3C2=O)c1 (stereo not shown) [Example 30, 6-Chloro-2-{5-[hydroxy-(1-methyl-1H-imidazol-2-yl)-methyl]-pyridin-3-yl}-3,4-dihydro-2H-isoquinolin-1-one]
287	31.6	O=C1c2ccc(Cl)cc2CCN1c1cncc(C(O)c2ccccc2)c1 (stereo not shown) [Example 34, 6-Chloro-2-[5-(hydroxy-phenyl-methyl)-pyridin-3-yl]-3,4-dihydro-2H-isoquinolin-1-one]
146	18.8	CC(O)(c1ccccc1)c1cncc(N2CCc3cc(Cl)ccc3C2=O)c1 (stereo not shown) [Example 35, 6-Chloro-2-[5-(1-hydroxy-1-phenyl-ethyl)-pyridin-3-yl]-3,4-dihydro-2H-isoquinolin-1-one]
10000	1090	O=C(c1cncc(N2CCc3cc(Cl)ccc3C2=O)c1)N1CCOCC1 [Example 39, 6-Chloro-2-[5-(morpholine-4-carbonyl)-pyridin-3-yl]-3,4-dihydro-2H-isoquinolin-1-one]
10500	1680	O=C(c1cncc(N2CCc3cc(Cl)ccc3C2=O)c1)N1CCC(O)C1 (stereo not shown) [Example 40, 6-Chloro-2-[5-(3-hydroxy-pyrrolidine-1-carbonyl)-pyridin-3-yl]-3,4-dihydro-2H-isoquinolin-1-one]
16900	5930	O=C(NC1CC1)c1cncc(N2CCc3cc(Cl)ccc3C2=O)c1 [Example 44, 5-(6-Chloro-1-oxo-3,4-dihydro-1H-isoquinolin-2-yl)-N-cyclopropyl-nicotinamide]

Continued, compound first:

Structure (SMILES)	EC50 (human CYP11B1) [nM]	EC50 (human CYP11B2) [nM]
C[C@H](O)c1cncc(N2CCc3cc(Cl)ccc3C2=O)c1 [Example 15, 6-Chloro-2-[5-((S)-1-hydroxy-ethyl)-pyridin-3-yl]-3,4-dihydro-2H-isoquinolin-1-one]	913	68.2
COC(C)c1cncc(N2CCc3cc(Cl)ccc3C2=O)c1 (stereo not shown) [Example 16, 6-Chloro-2-[5-(1-methoxy-ethyl)-pyridin-3-yl]-3,4-dihydro-2H-isoquinolin-1-one]	126	19.3
Nc1cncc(N2CCc3cc(Cl)ccc3C2=O)c1 [Example 17, 2-(5-Aminopyridin-3-yl)-6-chloro-3,4-dihydro-2H-isoquinolin-1-one]	14000	597
O=C1c2ccc(Cl)cc2CCN1c1cncc(C(O)C2CC2)c1 (stereo not shown) [Example 20, 6-Chloro-2-[5-(cyclopropyl-hydroxy-methyl)-pyridin-3-yl]-3,4-dihydro-2H-isoquinolin-1-one]	1050	85.9
COC(c1cncc(N2CCc3cc(Cl)ccc3C2=O)c1)C1CC1 (stereo not shown) [Example 21, 6-Chloro-2-[5-(cyclopropyl-methoxy-methyl)-pyridin-3-yl]-3,4-dihydro-2H-isoquinolin-1-one]	263	41.5
O=C1c2ccc(Cl)cc2CCN1c1cnccc1C(F)(F)F [Example 22, 6-Chloro-2-(4-trifluoromethyl-pyridin-3-yl)-3,4-dihydro-2H-isoquinolin-1-one]	517	55.7
O=C1c2ccc(Cl)cc2CCN1c1cncc(CCO)c1 [Example 23, 6-Chloro-2-[5-(2-hydroxy-ethyl)-pyridin-3-yl]-3,4-dihydro-2H-isoquinolin-1-one]	571	64
Cn1ncc2c(N3CCc4cc(Cl)ccc4C3=O)cncc21 [Example 27, 6-Chloro-2-(1-methyl-1H-pyrazolo[3,4-c]pyridin-4-yl)-3,4-dihydro-2H-isoquinolin-1-one]	731	75.3
CCC(=O)NC1CCCc2c1cncc2N1CCc2cc(Cl)ccc2C1=O (stereo not shown) [Example 29, N-(6-Chloro-1-oxo-3,4,5′,6′,7′,8′-hexahydro-1H-[2,4′]biisoquinolinyl-8′-yl)-propionamide]	12900	318
O=C1c2ccc(Cl)cc2CCN1c1cncc(C(O)c2ccc(F)c(F)c2)c1 (stereo not shown) [Example 31, 6-Chloro-2-{5-[(3,4-difluoro-phenyl)-hydroxy-methyl]-pyridin-3-yl}-3,4-dihydro-2H-isoquinolin-1-one]	328	50.2
O=C1c2ccc(Cl)cc2CCN1c1cncc(C(O)c2cc(F)cc(F)c2)c1 (stereo not shown) [Example 32, 6-Chloro-2-{5-[(3,5-difluoro-phenyl)-hydroxy-methyl]-pyridin-3-yl}-3,4-dihydro-2H-isoquinolin-1-one]	514	46.8
CCc1ccc(C(O)c2cncc(N3CCc4cc(Cl)ccc4C3=O)c2)cc1 (stereo not shown) [Example 33, 6-Chloro-2-{5-[(4-ethyl-phenyl)-hydroxy-methyl]-pyridin-3-yl}-3,4-dihydro-2H-isoquinolin-1-one]	485	210
CC(O)(c1cncc(N2CCc3cc(Cl)ccc3C2=O)c1)c1ccc(F)c(F)c1 (stereo not shown) [Example 36, 6-Chloro-2-{5-[1-(3,4-difluoro-phenyl)-1-hydroxy-ethyl]-pyridin-3-yl}-3,4-dihydro-2H-isoquinolin-1-one]	188	14
CC(O)(c1cc(F)cc(F)c1)c1cncc(N2CCc3cc(Cl)ccc3C2=O)c1 (stereo not shown) [Example 37, 6-Chloro-2-{5-[1-(3,5-difluoro-phenyl)-1-hydroxy-ethyl]-pyridin-3-yl}-3,4-dihydro-2H-isoquinolin-1-one]	149	9.2
Cc1cncc(N2CCc3cc(Cl)ccc3C2=O)n1 [Example 38, 6-Chloro-2-(6-methyl-pyrazin-2-yl)-3,4-dihydro-2H-isoquinolin-1-one]	8390	1070
CN(C)C(=O)c1cncc(N2CCc3cc(Cl)ccc3C2=O)c1 [Example 41, 5-(6-Chloro-1-oxo-3,4-dihydro-1H-isoquinolin-2-yl)-N,N-dimethyl-nicotinamide]	6080	3750
O=C(c1cncc(N2CCc3cc(Cl)ccc3C2=O)c1)N1CCCC1 [Example 42, 6-Chloro-2-[5-(pyrrolidine-1-carbonyl)-pyridin-3-yl]-3,4-dihydro-2H-isoquinolin-1-one]	7860	327
O=C(Nc1ccccc1)c1cncc(N2CCc3cc(Cl)ccc3C2=O)c1 [Example 46, 5-(6-Chloro-1-oxo-3,4-dihydro-1H-isoquinolin-2-yl)-N-phenyl-nicotinamide]	13900	698
O=C(c1cncc(N2CCc3cc(Cl)ccc3C2=O)c1)N1CCC(F)(F)CC1 [Example 47, 6-Chloro-2-[5-(4,4-difluoro-piperidine-1-carbonyl)-pyridin-3-yl]-3,4-dihydro-2H-isoquinolin-1-one]	23200	1030
